Read-outs that look alike come from different tables or passages of the source.
Assays:
Type in all cases: cell-based
[1] = test system: HER3-ss+4aa/Gaussia Luciferase; test: Dox-Induced Her3-ss-Gluc Assay; conditions: 293FRT/TO cells, read-out: 24 hr Dox Inducible Her3(ss + 4)Gluc 293FRT/TO: Mean IC50
Description: (§1) Transfected cells were selected for resistance to the selectable markers Hygromycin and Blasticidin to create a stable cell line that contained the HER3-ss+4aa/Gaussia Luciferase cDNA insert whose expression was regulated under the T-REx™ system. The day before assay, cells were trypsinized and plated in 384-well tissue culture plates. The next day, compound dilutions in DMSO/media containing doxycycline were added to the wells and incubated at 37° C., 5% CO2.
(§2) For chemical structures that include one or more stereoisomers, but are illustrated without indicating stereochemistry, the assay data refers to a mixture of stereoisomers.

[2] = test system: IL-2-FL/Gaussia Luciferase; test: Dox Induced IL2-FL-Gluc Assay; conditions: 293FRT/TO cells, read-out: 24 hr Dox Inducible IL2FLGIuc 293FRT/TO: Mean IC50
Description: as §1, with “IL-2-FL/Gaussia” for “HER3-ss+4aa/Gaussia”, “T-RExTM” for “T-REx™”, “CO2. […] For chemical structures that include one or more stereoisomers, but are illustrated without indicating stereochemistry, the assay data refers to a mixture of stereoisomers.” for “CO2.”

[3] = test system: human multiple myeloma cell line U266B1; test: U266 Cell Viability Assay; conditions: read-out: 48 hr U266 Viability Celltiter-Glo: Mean EC50
Description: Cells were plated in 384-well tissue culture plates and treated with compound dilutions in DMSO/media. Plates were incubated at 37° C., 5% CO2 for 48 hours. After 48 hours, Celltiter-Glo® (Promega) was added to each well and luciferase signal was quantified using Tecan Infinite M1000 Pro for cell viability determination.
as §2

[4] = test system: PD1-ss+10aa/Gaussia Luciferase; test: Dox-Induced PD1-ss-Gluc Assay; conditions: 293FRT/TO cells, read-out: 24 hr Dox Inducible PD1ssGluc 293FRT/TO: Mean IC50
Description: as §1, with “PD1-ss+10aa/Gaussia” for “HER3-ss+4aa/Gaussia”
as §2

[5] = test system: human multiple myeloma cell line NCI-H929; test: H929 Cell Viability Assay; conditions: read-out: 48 hr H929 Viability Celltiter-Glo: Mean EC50
Description: Plates were incubated at 37° C., 5% CO2 for 48 hours. After 48 hours, Celltiter-Glo® (Promega) was added to each well and luciferase signal was quantified using Tecan Infinite M1000 Pro for cell viability determination.
as §2

[6] = test system: TNFα-FL/Gaussia Luciferase; test: Dox Induced TNFα-FL-Gluc Assay; conditions: 293FRT/TO cells, read-out: 24 hr Dox Inducible TNFaFLGluc 293FRT/TO: Mean IC50
Description: as §1, with “TNFα-FL/Gaussia” for “HER3-ss+4aa/Gaussia”, “T-RExTM” for “T-REx™”, “CO2. […] For chemical structures that include one or more stereoisomers, but are illustrated without indicating stereochemistry, the assay data refers to a mixture of stereoisomers.” for “CO2.”

[7] = 24 hr doxycycline induction, Gaussia luciferase signal
[8] = U-266, 48 hr, U266B1 cells, Celltiter-Glo
[9] = 48 hr, NCI-H929 cells, Celltiter-Glo

Row | SMILES | IC50 [1, 7] | IC50 [2, 7] | EC50 [3, 8] | IC50 [4, 7] | EC50 [5, 9] | IC50 [6, 7] | IC50 ([1]; 24 hr, doxycycline-induced) | IC50 ([2]; 24 hr, doxycycline-induced) | IC50 ([4]; 24 hr, doxycycline-induced) | IC50 ([6]; 24 hr, doxycycline-induced) | EC50 ([3]; U-266, 48 h) | EC50 ([5]; NCI-H929, 48 h)
1 | O=C(Nc1nc(CCc2cccc(Cl)c2)cs1)c1cccn1Cc1ccncc1 [Compound A179] | 0.541 µM | 1.17 µM | 10.6 µM | 0.211 µM | 5.75 µM | 3.58 µM | – | – | – | – | – | –
2 | O=C(Nc1nc([C@H]2C[C@H](O)CN2c2ccccc2)cs1)c1cccn1Cc1ccncc1 [Compound A326] | – | – | > 25 µM | – | 5 µM | – | 0.201 µM | 0.126 µM | 0.059 µM | 0.308 µM | – | –
3 | CC(C)(COc1ccccc1)c1csc(NC(=O)c2cccn2Cc2ccncc2)n1 [Compound A228] | 0.73 µM | 0.933 µM | > 25 µM | 0.335 µM | 9.25 µM | 3.59 µM | – | – | – | – | – | –
4 | Cc1cccnc1/C=C/c1csc(NC(=O)c2cccn2Cc2ccncc2)n1 [Compound A347] | – | – | 20.3 µM | – | 23.8 µM | – | 6.01 µM | 9.58 µM | 0.042 µM | 13.1 µM | – | –
5 | CO[C@H]1CC[C@H](/C=C/c2csc(NC(=O)c3cccn3Cc3ccncc3)n2)CC1 [Compound A253, N-(4-(2-((1r,4r)-4-methoxycyclohexyl)vinyl)thiazol-2-yl)-1-(pyridin-4-ylmethyl)-1H-pyrrole-2-carboxamide] | 0.672 µM | 1.58 µM | 15.6 µM | 0.22 µM | 10.8 µM | 4.2 µM | – | – | – | – | – | –
6 | COc1cc(Cn2cccc2C(=O)Nc2nc(C(C)(C)OC(C)C)cs2)cc(F)n1 [Compound A70, 1-((2-fluoro-6-methoxypyridin-4-yl)methyl)-N-(4-(2-isopropoxypropan-2-yl)thiazol-2-yl)-1H-pyrrole-2-carboxamide] | 9.39 µM | 5.67 µM | > 25 µM | 2.23 µM | > 25 µM | > 25 µM | – | – | – | – | – | –
7 | O=C(Nc1nc(C2(OCc3ccccc3)CC2)cs1)c1cccn1Cc1ccncc1 [Compound A263, N-(4-(1-(benzyloxy)cyclopropyl)thiazol-2-yl)-1-(pyridin-4-ylmethyl)-1H-pyrrole-2-carboxamide] | 0.958 µM | 1.04 µM | > 25 µM | 0.381 µM | 21.5 µM | 5.22 µM | – | – | – | – | – | –
8 | CCc1nc(NC(=O)c2cccn2Cc2ccccc2)sc1C [Compound B9, 1-benzyl-N-(4-ethyl-5-methylthiazol-2-yl)-1H-pyrrole-2-carboxamide] | – | – | > 25 µM | – | > 25 µM | – | > 25 µM | > 25 µM | 9.43 µM | > 25 µM | – | –
9 | O=C(Nc1nc(C2[C@@H](O)CCN2c2ccccc2)cs1)c1cccn1Cc1ccncc1 (stereo partly drawn) [Compound A344] | – | – | > 25 µM | – | > 25 µM | – | 2.03 µM | 1.35 µM | 0.971 µM | 8.86 µM | – | –
10 | O=C(Nc1nc(N2CCC(c3ccccc3)CC2)cs1)c1cccn1Cc1ccncc1 [Compound A261] | 2.02 µM | > 25 µM | > 25 µM | 2.25 µM | > 25 µM | > 25 µM | – | – | – | – | – | –
11 | CC(C)OC(C)(C)c1csc(NC(=O)[C@@H]2CCCN2Cc2ccncc2)n1 [Compound A130, (S)-N-(4-(2-isopropoxypropan-2-yl)thiazol-2-yl)-1-(pyridin-4-ylmethyl)pyrrolidine-2-carboxamide] | > 25 µM | > 25 µM | – | > 25 µM | > 25 µM | > 25 µM | – | – | – | – | – | –
12 | CCc1nc(NC(=O)c2cc3cc(Cl)ccc3n2Cc2ccncc2)sc1C [Compound B29, 5-chloro-N-(4-ethyl-5-methylthiazol-2-yl)-1-(pyridin-4-ylmethyl)-1H-indole-2-carboxamide] | – | – | – | – | – | – | – | > 25 µM | > 25 µM | > 25 µM | > 25 µM | > 25 µM
13 | CC(C)(C)c1csc(NC(=O)c2cc3cc(Cl)ccc3n2Cc2ccncc2)n1 [Compound B28, N-(4-(tert-butyl)thiazol-2-yl)-5-chloro-1-(pyridin-4-ylmethyl)-1H-indole-2-carboxamide] | – | – | – | – | – | – | – | > 25 µM | > 25 µM | > 25 µM | > 25 µM | 23.4 µM

Reference: US20220153732A1, “PROTEIN SECRETION INHIBITORS” (KEZAR LIFE SCIENCES, priority 2019, published 2022)
